Some test systems named below: A549; MOLT-4; HT-29; LOX IMVI; HOP-92; EKVX; MDA-MB-435; UO-31; UACC-257; SK-MEL-5; HL-60; HCT-15; RXF 393; SF-539; SF-295; OVCAR-8; SN12C; SK-MEL-2; UACC-62; Malme-3M.
Experiment in all cases: NCI tumour cell line growth inhibition, 48 h

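Cells were grown in 96-well plates and exposed to each compound for 48 hours at five concentrations; endpoints were interpolated linearly between bracketing concentrations, or set to the highest concentration if not reached. At the GI50, growth is halved.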 Activity calls are given as the source filed them. No stated cut-off is given here; in the data, active = GI50 up to about 1.1 µM and inactive = higher. Non-standard residues stand in square brackets, D forms with d. Residues, ends and D or L forms follow the SMILES beside them. *: point of attachment. hSer = N[CH](CCO)C(=O)O; Boc = CC(C)(C)OC(=O)* A value given as a limit tells only on which side of the number the result lay.

On to `O=C1/C(=C/c2ccc(Cl)c(Cl)c2)CNC/C1=C\c1ccc(Cl)c(Cl)c1`, for which the GI50 is 14.8 µM (inactive) in the assay with A549; 5.4 µM (inactive) in the assay with MOLT-4; 5.35 µM (inactive) in the assay with HT-29; 5.07 µM (inactive) in the assay on LOX IMVI; 22 µM (inactive) in the assay on HOP-92; 6.17 µM (inactive) in the assay on EKVX. Further, the GI50 in the assay on MDA-MB-435 was 20.9 µM (inactive); in the assay on UO-31 it was 17.5 µM (inactive); with UACC-257, 41.2 µM (inactive); with SK-MEL-5, 36.5 µM (inactive); in the assay with HL-60, 8.39 µM (inactive); in the assay with HCT-15, 2.94 µM. Also, the GI50 is 14 µM (inactive) in the assay with RXF 393; 7.87 µM (inactive) in the assay with SF-539; 9.2 µM (inactive) in the assay with SF-295; 3.92 µM (inactive) in the assay on OVCAR-8; 5.08 µM (inactive) with SN12C; 23.3 µM (inactive) in the assay on SK-MEL-2. For the same compound, the GI50 is 14 µM (inactive) in the assay on UACC-62 and 28.1 µM (inactive) in the assay on Malme-3M.
For `COCCC(NC(=O)C(CC(C)C)NC(=O)OC(C)(C)C)C(N)=O` (stereo not drawn) (Boc-Leu-[hSer](Me)-NH2; configuration not given here), the GI50 in the assay on A549, in the assay on MOLT-4, with HT-29, in the assay with LOX IMVI, in the assay with HOP-92 and in the assay on EKVX was > 100 µM (inactive) throughout. In addition, the GI50 is > 100 µM (inactive) in the assay on MDA-MB-435; > 100 µM (inactive) in the assay on UO-31; > 100 µM (inactive) with UACC-257; > 100 µM (inactive) in the assay with SK-MEL-5; > 100 µM (inactive) in the assay with HL-60; greater than 100 µM in the assay with HCT-15. In addition, the GI50 in the assay with RXF 393, in the assay on SF-539, with SF-295, in the assay on OVCAR-8, in the assay on SN12C and with SK-MEL-2 was > 100 µM (inactive) in each case. Further, the GI50 in the assay with UACC-62 and with Malme-3M was > 100 µM (inactive) throughout.
For the compound `CC(C(=O)O)c1ccc(-c2ccccc2)c(F)c1` (stereo not given) [FLURBIPROFEN], the GI50 in the assay with A549, in the assay on MOLT-4, in the assay with HT-29, with LOX IMVI, in the assay on HOP-92 and with EKVX was > 100 µM (inactive) in each case. The GI50 with MDA-MB-435 is > 100 µM (inactive); in the assay on UO-31, > 100 µM (inactive); with UACC-257, > 100 µM (inactive); in the assay with SK-MEL-5, > 100 µM (inactive); in the assay on HL-60 it was > 100 µM (inactive); in the assay with HCT-15 it was greater than 100 µM. Further, the GI50 in the assay on RXF 393, in the assay on SF-539, with SF-295, in the assay with OVCAR-8, with SN12C and with SK-MEL-2 was > 100 µM (inactive) in each case. Also, the GI50 in the assay on UACC-62 and with Malme-3M was > 100 µM (inactive) in each case.

Source of the values: ChEMBL document CHEMBL1201862, “PubChem BioAssay data set” (2004).
